According to PubChem BioAssay (NCI):
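Test compounds were applied to cells in 96-well plates for 48 hours at 5 doses. TGI: concentration producing complete growth inhibition.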

How the values were obtained:
Assay in all cases: NCI anticancer screen, dose series, 48 h
TK-10 renal = test system: TK-10 renal
NCI-H522 lung = test system: NCI-H522 lung
SF-295 CNS = test system: SF-295 CNS
CAKI-1 renal = test system: CAKI-1 renal
A549 NSCLC = test system: A549 NSCLC
SN12C renal = test system: SN12C renal
HS 578T breast = test system: HS 578T breast
786-0 renal = test system: 786-0 renal
KM12 colon = test system: KM12 colon
COLO 205 colon = test system: COLO 205 colon
SK-MEL-5 melanoma = test system: SK-MEL-5 melanoma
HL-60(TB) leukemia = test system: HL-60(TB) leukemia
CCRF-CEM leukemia = test system: CCRF-CEM leukemia
MALME-3M melanoma = test system: MALME-3M melanoma
A498 renal = test system: A498 renal
OVCAR-5 ovarian = test system: OVCAR-5 ovarian
HCT-15 colon = test system: HCT-15 colon
SNB-75 CNS = test system: SNB-75 CNS
M14 melanoma = test system: M14 melanoma
T-47D breast = test system: T-47D breast
LOX IMVI melanoma = test system: LOX IMVI melanoma
UO-31 renal = test system: UO-31 renal
OVCAR-4 ovarian = test system: OVCAR-4 ovarian
UACC-62 melanoma = test system: UACC-62 melanoma
NCI/ADR-RES ovarian = test system: NCI/ADR-RES ovarian
HCT-116 colon = test system: HCT-116 colon
RPMI-8226 leukemia = test system: RPMI-8226 leukemia
BT-549 breast = test system: BT-549 breast
SF-268 CNS = test system: SF-268 CNS
U251 CNS = test system: U251 CNS
SF-539 CNS = test system: SF-539 CNS
EKVX NSCLC = test system: EKVX NSCLC
MOLT-4 leukemia = test system: MOLT-4 leukemia
SK-MEL-2 melanoma = test system: SK-MEL-2 melanoma
K-562 leukemia = test system: K-562 leukemia
HT29 colon = test system: HT29 colon
ACHN renal = test system: ACHN renal
SR leukemia = test system: SR leukemia
NCI-H23 lung = test system: NCI-H23 lung
HOP-92 NSCLC = test system: HOP-92 NSCLC
SW-620 colon = test system: SW-620 colon
SNB-19 CNS = test system: SNB-19 CNS
MDA-MB-435 = test system: MDA-MB-435
PC-3 prostate = test system: PC-3 prostate
SK-OV-3 ovarian = test system: SK-OV-3 ovarian
MCF7 breast = test system: MCF7 breast
OVCAR-8 ovarian = test system: OVCAR-8 ovarian
OVCAR-3 ovarian = test system: OVCAR-3 ovarian
MDA-N = test system: MDA-N
MDA-MB-231 breast = test system: MDA-MB-231 breast
UACC-257 melanoma = test system: UACC-257 melanoma
NCI-H460 lung = test system: NCI-H460 lung
NCI-H226 lung = test system: NCI-H226 lung
DU-145 prostate = test system: DU-145 prostate
RXF 393 renal = test system: RXF 393 renal
HCC-2998 colon = test system: HCC-2998 colon
IGROV1 ovarian = test system: IGROV1 ovarian
SK-MEL-28 melanoma = test system: SK-MEL-28 melanoma
HOP-62 NSCLC = test system: HOP-62 NSCLC

NC(=O)C1=CC2C3C=CC2(O)C(=O)OC3O1 (centres undefined)
TGI (TK-10 renal): 16.7 µM | TGI (NCI-H522 lung): 4.31 µM | TGI (SF-295 CNS): 27.1 µM | TGI (CAKI-1 renal): 17 µM | TGI (A549 NSCLC): > 100 µM | TGI (SN12C renal): 20 µM | TGI (HS 578T breast): 5.57 µM | TGI (786-0 renal): 16 µM | TGI (KM12 colon): 11.4 µM | TGI (COLO 205 colon): 16.1 µM | TGI (SK-MEL-5 melanoma): 6.32 µM | TGI (HL-60(TB) leukemia): 10.5 µM | TGI (CCRF-CEM leukemia): 9.8 µM | TGI (MALME-3M melanoma): 4.03 µM | TGI (A498 renal): 59.3 µM | TGI (OVCAR-5 ovarian): > 64.5 µM | TGI (HCT-15 colon): 13.9 µM | TGI (SNB-75 CNS): 29.4 µM | TGI (M14 melanoma): 13.2 µM | TGI (T-47D breast): 15.1 µM | TGI (LOX IMVI melanoma): 5.18 µM | TGI (UO-31 renal): 13.7 µM | TGI (OVCAR-4 ovarian): 13.2 µM | TGI (UACC-62 melanoma): 7.74 µM | TGI (NCI/ADR-RES ovarian): 7.22 µM | TGI (HCT-116 colon): 7.41 µM | TGI (RPMI-8226 leukemia): > 29.5 µM | TGI (BT-549 breast): 17.3 µM | TGI (SF-268 CNS): 20.9 µM | TGI (U251 CNS): 40.5 µM | TGI (SF-539 CNS): 15.7 µM | TGI (EKVX NSCLC): 13.5 µM | TGI (MOLT-4 leukemia): 8.78 µM | TGI (SK-MEL-2 melanoma): > 40.2 µM | TGI (K-562 leukemia): > 100 µM | TGI (HT29 colon): 9.83 µM | TGI (ACHN renal): 15.7 µM | TGI (SR leukemia): 5.48 µM | TGI (NCI-H23 lung): 9.47 µM | TGI (HOP-92 NSCLC): 6.73 µM | TGI (SW-620 colon): 28.6 µM | TGI (SNB-19 CNS): 60.9 µM | TGI (MDA-MB-435): 16.5 µM | TGI (PC-3 prostate): 37.7 µM | TGI (SK-OV-3 ovarian): 57.4 µM | TGI (MCF7 breast): 18.5 µM | TGI (OVCAR-8 ovarian): 6.66 µM | TGI (OVCAR-3 ovarian): 24.7 µM | TGI (MDA-N): 6.97 µM | TGI (MDA-MB-231 breast): 32 µM | TGI (UACC-257 melanoma): 7.44 µM | TGI (NCI-H460 lung): 43.2 µM | TGI (NCI-H226 lung): 5.83 µM | TGI (DU-145 prostate): 14.2 µM | TGI (RXF 393 renal): 8.23 µM | TGI (HCC-2998 colon): 26.7 µM | TGI (IGROV1 ovarian): 11.7 µM | TGI (SK-MEL-28 melanoma): 8.48 µM | TGI (HOP-62 NSCLC): 29.9 µM
